Data: patent publication US11560371B2, “Cereblon binding compounds, compositions thereof, and methods of treatment therewith” (Celgene Corporation, priority 2020, dated 2023)
Where a name gives a salt, the structure may show the parent alone.

Target: T1, AR (Homo sapiens, UniProt P10275)
T1 construct: endogenous in cells; host or cells: VCaP cells
T1 sequence (P10275 1-920): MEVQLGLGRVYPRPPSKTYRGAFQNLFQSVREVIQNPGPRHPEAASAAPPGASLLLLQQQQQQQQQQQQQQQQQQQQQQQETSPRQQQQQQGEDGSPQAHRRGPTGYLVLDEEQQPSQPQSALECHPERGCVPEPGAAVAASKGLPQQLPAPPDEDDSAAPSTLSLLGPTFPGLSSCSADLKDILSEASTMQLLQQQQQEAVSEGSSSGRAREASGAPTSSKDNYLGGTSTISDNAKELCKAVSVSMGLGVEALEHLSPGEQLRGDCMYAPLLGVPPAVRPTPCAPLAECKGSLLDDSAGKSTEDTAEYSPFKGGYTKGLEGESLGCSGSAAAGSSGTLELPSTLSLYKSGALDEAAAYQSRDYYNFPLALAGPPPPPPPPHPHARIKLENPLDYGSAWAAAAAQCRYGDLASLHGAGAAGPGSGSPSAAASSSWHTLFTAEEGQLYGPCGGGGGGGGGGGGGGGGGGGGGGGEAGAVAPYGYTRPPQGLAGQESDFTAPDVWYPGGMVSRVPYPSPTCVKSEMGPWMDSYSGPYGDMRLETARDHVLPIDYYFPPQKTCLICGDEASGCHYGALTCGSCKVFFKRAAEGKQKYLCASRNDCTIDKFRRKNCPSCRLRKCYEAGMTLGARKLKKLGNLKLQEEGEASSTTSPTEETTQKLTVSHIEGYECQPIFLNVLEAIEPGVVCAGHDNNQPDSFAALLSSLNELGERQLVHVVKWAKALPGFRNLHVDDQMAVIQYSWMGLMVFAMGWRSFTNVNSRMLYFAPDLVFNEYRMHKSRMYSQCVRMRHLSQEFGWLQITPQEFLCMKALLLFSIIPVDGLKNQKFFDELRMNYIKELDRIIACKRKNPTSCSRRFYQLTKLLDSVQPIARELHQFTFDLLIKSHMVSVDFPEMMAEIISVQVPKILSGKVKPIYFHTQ
Test: VCAP AR Degradation Assay
Format: cell-based
Settings: VCaP cells, 24 h, AR ELISA; for DC50: concentration of compound when AR level = 50% of DMSO control (50% AR degradation); for Y: lowest measured AR level normalized to DMSO control (AR degradation efficiency)
Experimental: VCAP AR Degradation Assay. Test compounds were pre-dispensed into a Corning CellBind 96-well clear bottom plate (Cat #3300) using an acoustic dispenser to make a 10-point concentration series at 1:3 dilution for each compound. The final top concentration of each compound was 5 μM. DMSO at a final concentration of 0.1% was used as a control. VCaP cells cultured in DMEM with 8% fetal bovine serum (FBS) were seeded at 50K cells per well in a 200 μL volume into the compound plate and incubated at 37° C. in a CO2 incubator for 24 h. The medium was carefully removed from the cells and the plate was placed on ice. […] ice-cold 1× cell lysis buffer from Cell Signaling Technologies (Cat #9803) was added to each well of the cells and the plate was incubated at 4° C. on a shaker for 1 h. Fifteen μL of cell lysate was used for AR ELISA detection using a PathScan Total Sandwich AR ELISA kit (Cell Signaling Technology, Cat #12580). AR levels in compound-treated wells were normalized to that of DMSO control and expressed as percent of control (PoC) (y). A Four Parameter Logistic Model (Sigmoidal Dose-Response Model) was used to determine the compound's DC50, and EC50, using the following equation: y=(A+((B−A)/(1+((C/x)^D)))) • A=YMin (lowest AR level normalized to DMSO control in response to compound treatment, as determined by curve fit) • B=YMax (maximum AR level as determined by curve fit) • C=EC50 • D=Hill Slope • x=compound concentration • EC50=the concentration of compound when y=[…] • DC50=the concentration of the compound when y=50% of DMSO control (50% AR degradation) • y=AR protein level normalized to DMSO control
The lowest measured AR level normalized to DMSO control in response to compound treatment, termed Y value, was used to characterize the compound-mediated AR degradation efficiency.

SMILES | DC50 [nM] | Y | DC50 (hydrochloride) [nM]
C[C@@H]1CN(CCC[C@H]2CC[C@H](N3C(=S)N(c4cnc(C#N)c(Cl)c4)C(=O)C3(C)C)CC2)C[C@H](C)N1CC(=O)Nc1cccc2c(N3CCC(=O)NC3=O)nn(C)c12 [Cmpd 12, 2-((2R,6S)-4-(3-(trans-4-(3-(5-Chloro-6-cyanopyridin-3-yl)-5,5-dimethyl-4-oxo-2-thioxoimidazolidin-1-yl)cyclohexyl)propyl)-2,6-dimethylpiperazin-1-yl)-N-(3-(2,4-dioxotetrahydropyrimidin-1(2H)-yl)-1-methyl-1H-indazol-7-yl)acetamide hydrochloride] | 2 to 10 | ** (20%<Y≤%) | –
C[C@@H]1C[C@@H](CCO[C@H]2CC[C@H](N3C(=S)N(c4ccc(C#N)c(C(F)(F)F)c4)C(=O)C3(C)C)CC2)C[C@H](C)N1CC(=O)Nc1cccc2c(N3CCC(=O)NC3=O)nn(C)c12 [Cmpd 13, 2-((2R,4s,6S)-4-(2-((trans-4-(3-(4-Cyano-3-(trifluoromethyl)phenyl)-5,5-dimethyl-4-oxo-2-thioxoimidazolidin-1-yl)cyclohexyl)oxy)ethyl)-2,6-dimethylpiperidin-1-yl)-N-(3-(2,4-dioxotetrahydropyrimidin-1(2H)-yl)-1-methyl-1H-indazol-7-yl)acetamide hydrochloride] | 2 to 10 | * (0<Y≤20%) | –
C[C@@H]1C[C@H](CCO[C@H]2CC[C@H](N3C(=S)N(c4ccc(C#N)c(C(F)(F)F)c4)C(=O)C3(C)C)CC2)C[C@H](C)N1CC(=O)Nc1cccc2c(N3CCC(=O)NC3=O)nn(C)c12 [Cmpd 14, 2-((2R,4r,6S)-4-(2-((trans-4-(3-(4-Cyano-3-(trifluoromethyl)phenyl)-5,5-dimethyl-4-oxo-2-thioxoimidazolidin-1-yl)cyclohexyl)oxy)ethyl)-2,6-dimethylpiperidin-1-yl)-N-(3-(2,4-dioxotetrahydropyrimidin-1(2H)-yl)-1-methyl-1H-indazol-7-yl)acetamide hydrochloride] | 2 to 10 | * (0<Y≤20%) | –
C[C@@H]1CN(CCO[C@H]2CC[C@H](N3C(=S)N(c4ccc(C#N)c(C(F)(F)F)c4)C(=O)C3(C)C)CC2)C[C@H](C)N1CCOc1cccc2c(N3CCC(=O)NC3=O)nn(C)c12 [Cmpd 15, 4-(3-(trans-4-(2-((3R,5S)-4-(2-((3-(2,4-Dioxotetrahydropyrimidin-1(2H)-yl)-1-methyl-1H-indazol-7-yl)oxy)ethyl)-3,5-dimethylpiperazin-1-yl)ethoxy)cyclohexyl)-4,4-dimethyl-5-oxo-2-thioxoimidazolidin-1-yl)-2-(trifluoromethyl)benzonitrile hydrochloride] | 100 to 10000 | ** (20%<Y≤%) | –
C[C@@H]1CN(CCO[C@H]2CC[C@H](N3C(=S)N(c4ccc(C#N)c(C(F)(F)F)c4)C(=O)C3(C)C)CC2)C[C@H](C)N1CCCOc1cccc2c(N3CCC(=O)NC3=O)nn(C)c12 [Cmpd 16, 4-(3-(trans-4-(2-((3S,5R)-4-(3-((3-(2,4-dioxotetrahydropyrimidin-1(2H)-yl)-1-methyl-1H-indazol-7-yl)oxy)propyl)-3,5-dimethylpiperazin-1-yl)ethoxy)cyclohexyl)-4,4-dimethyl-5-oxo-2-thioxoimidazolidin-1-yl)-2-(trifluoromethyl)benzonitrile hydrochloride] | 100 to 10000 | *** (30%<Y<60%) | –
C[C@@H]1CN(CCCC[C@H]2CC[C@H](N3C(=S)N(c4ccc(C#N)c(C(F)(F)F)c4)C(=O)C3(C)C)CC2)C[C@H](C)N1CC(=O)Nc1cccc2c(N3CCC(=O)NC3=O)nn(C)c12 [Cmpd 17, 2-((2R,6S)-4-(4-(trans-4-(3-(4-Cyano-3-(trifluoromethyl)phenyl)-5,5-dimethyl-4-oxo-2-thioxoimidazolidin-1-yl)cyclohexyl)butyl)-2,6-dimethylpiperazin-1-yl)-N-(3-(2,4-dioxotetrahydropyrimidin-1(2H)-yl)-1-methyl-1H-indazol-7-yl)acetamide hydrochloride] | 2 to 10 | ** (20%<Y≤%) | –
C[C@@H]1CN(CCO[C@H]2CC[C@H](N3C(=S)N(c4ccc(C#N)c(C(F)(F)F)c4)C(=O)C3(C)C)CC2)C[C@H](C)N1CCNc1cccc2c(N3CCC(=O)NC3=O)nn(C)c12 [Cmpd 18, 4-(3-(trans-4-(2-((3R,5S)-4-(2-((3-(2,4-Dioxotetrahydropyrimidin-1(2H)-yl)-1-methyl-1H-indazol-7-yl)amino)ethyl)-3,5-dimethylpiperazin-1-yl)ethoxy)cyclohexyl)-4,4-dimethyl-5-oxo-2-thioxoimidazolidin-1-yl)-2-(trifluoromethyl)benzonitrile hydrochloride] | – | *** (30%<Y<60%) | 10 to 100
Cn1nc(N2CCC(=O)NC2=O)c2cccc(NC(=O)CN3CCN(CCO[C@H]4CC[C@H](N5C(=S)N(c6ccc(C#N)c(C(F)(F)F)c6)C(=O)C5(C)C)CC4)C[C@@H]3C(F)(F)F)c21 [Cmpd 20, 2-((R)-4-(2-((trans-4-(3-(4-Cyano-3-(trifluoromethyl)phenyl)-5,5-dimethyl-4-oxo-2-thioxoimidazolidin-1-yl)cyclohexyl)oxy)ethyl)-2-(trifluoromethyl)piperazin-1-yl)-N-(3-(2,4-dioxotetrahydropyrimidin-1(2H)-yl)-1-methyl-1H-indazol-7-yl)acetamide hydrochloride] | ≤ 2 | ** (20%<Y≤%) | –
C[C@@H]1CN(CCO[C@H]2CC[C@H](N3C(=S)N(c4ccc(C#N)c(S(F)(F)(F)(F)F)c4)C(=O)C3(C)C)CC2)C[C@H](C)N1CC(=O)Nc1cccc2c(N3CCC(=O)NC3=O)nn(C)c12 [Cmpd 21, 2-((2S,6R)-4-(2-((trans-4-(3-(4-Cyano-3-(pentafluoro-λ^6-sulfaneyl)phenyl)-5,5-dimethyl-4-oxo-2-thioxoimidazolidin-1-yl)cyclohexyl)oxy)ethyl)-2,6-dimethylpiperazin-1-yl)-N-(3-(2,4-dioxotetrahydropyrimidin-1(2H)-yl)-1-methyl-1H-indazol-7-yl)acetamide hydrochloride] | 100 to 10000 | *** (30%<Y<60%) | –
Cn1nc(N2CCC(=O)NC2=O)c2cccc(NC(=O)CN3CCN(CCC[C@H]4CC[C@H](N5C(=S)N(c6cnc(C#N)c(C(F)(F)F)c6)C(=O)C5(C)C)CC4)C[C@@H]3C(F)(F)F)c21 [Cmpd 22, 2-((R)-4-(3-(trans)-4-(3-(6-cyano-5-(trifluoromethyl)pyridin-3-yl)-5,5-dimethyl-4-oxo-2-thioxoimidazolidin-1-yl)cyclohexyl)propyl)-2-(trifluoromethyl)piperazin-1-yl)-N-(3-(2,4-dioxotetrahydropyrimidin-1(2H)-yl)-1-methyl-1H-indazol-7-yl)acetamide hydrochloride] | 2 to 10 | * (0<Y≤20%) | –
Cn1nc(N2CCC(=O)NC2=O)c2cccc(NC(=O)CN3CCN(CCC[C@H]4CC[C@H](N5C(=S)N(c6ccc(C#N)c(C(F)(F)F)c6)C(=O)C5(C)C)CC4)C[C@@H]3C(F)(F)F)c21 [Cmpd 23, 2-((R)-4-(3-(trans-4-(3-(4-cyano-3-(trifluoromethyl)phenyl)-5,5-dimethyl-4-oxo-2-thioxoimidazolidin-1-yl)cyclohexyl)propyl)-2-(trifluoromethyl)piperazin-1-yl)-N-(3-(2,4-dioxotetrahydropyrimidin-1(2H)-yl)-1-methyl-1H-indazol-7-yl)acetamide] | 2 to 10 | ** (20%<Y≤%) | –
